Data taken from patent US12472282B2, “Bioengineered wharton's jelly derived extracellular matrix” (University of Rochester, priority 2018, dated 2025).

System: primary acute myeloid leukemia (AML) cells
Test: Response to chemotherapy following treatment with doxorubicin, DWJM culture vs suspension culture
Type: cell-based, human
Protocol: AML patient samples collected by leukapheresis were cultured in DWJM disks for one week. Non-adherent cells were first aspirated and adherent cells were separately isolated and assessed for viability, apoptosis, and colony forming unit (CFU). RNA sequencing was performed at the end of culture. Response to chemotherapy following treatment with doxorubicin was also assessed. For all studies, DWJM-adherent and non-adherent cells were compared to suspension culture controls. Metabolic pathway analyses were conducted using enzyme-linked immunosorbent assay (ELISA). One-tailed t-test was used for comparison between the groups

SMILES: COc1cccc2c1C(=O)c1c(O)c3c(c(O)c1C2=O)C[C@@](O)(C(=O)CO)C[C@@H]3O[C@H]1C[C@H](N)[C@H](O)[C@H](C)O1 [doxorubicin]
- CFU activity after doxorubicin (co-culture with DWJM, P=0.047): 3.3 /300,000 cells
- CFU activity after doxorubicin (suspension culture cells): 0.3 /300,000 cells
